Test results as given in US8835458B2 (Hanmi Science Co., Ltd, priority 2010, dated 2014).

What was measured:
[1] = system: MDA-MB-231 breast cancer cell lines; assay: Evaluation of inhibition on cell growth (MTS); format: cell-based; details: 120 hours
Procedure, shortened: (§1)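 Cells seeded at 3,000˜5,000 cells/100 μL, grown 24 h at 37° C (MDA-MB-231 under atmospheric conditions), then exposed to 10 μM˜0.1 nM compound. MDA-MB-231 cultured 120 h, read by MTS at 490 nm; fibroblasts cultured 72 h, TCA-fixed, SRB-stained, read at 540 nm. GI50 from growth relative to untreated and medium-only cells.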

Balb/c3t3 fibroblasts = assay: Toxicity to normal cells (SRB); format: cell-based, mouse; details: normal cell line, 72 hours, read-out: BalB/C (GI50)
Procedure, shortened: as §1

Hs27 fibroblasts = assay: Toxicity to normal cells (SRB); format: cell-based, human; details: normal cell line, 72 hours
Procedure, shortened: as §1

Substance: (S)—N—((S)-1-((S)-2-(4-((4-bromo-2-fluorophenylamino)-6-methoxyquinazolinyl-7-oxy)methyl)piperidine)-1-carbonyl)-1-pyrrolidinyl)-3,3-dimethyloxobutan-2-yl)-2-(methylamino)propanamide hydrochloride [Example 44]
- GI50 [1]: ≤ 0.1 µM
- GI50 (Balb/c3t3 fibroblasts): > 10 µM
- GI50 (Hs27 fibroblasts): > 10 µM
